In paper PMC5382279, “Glutaredoxin catalysis requires two distinct glutathione interaction sites” (Nature Communications, 2017):
Residue numbers refer to the chain shown, from its start. Names may count otherwise. “And” between values parts separate entries of the source, which are not always exact repeats. Equal entries are not always repeated. Numbered stars: 1 amine (or outer) side, 2 acyl side, 3 side chain; on linkers, the order of the positions; unused ones are H or OH. Square brackets hold non-standard residues; d marks the D form. Peptide text beside a SMILES is read from it. γGlu = O=C(O)[C@H](CCC(=O)[*:2])N[*:1]; Abu = CC[C@H](N)C(=O)O

Columns and labels:
ScGrx7 [1] = molecular target: T1, ScGrx7 (Saccharomyces cerevisiae, UniProt P38068, K105E); test: coupled NADPH/glutathione reductase assay, […] nm, GSSCys assay; type: biochemical; conditions: varied GSSCys 25-200 uM at fixed GSH 0.05-1.0 mM; 0.1 M Tris/HCl, 1 mM EDTA, pH 8.0, 25 C; ping-pong
T1 construct: gene GRX7; N-terminal MRGS(H)6 tag kept, E. coli XL1-Blue, pQE30/SCGRX7 double stop-codon construct
T1 sequence (P38068 33-203 K105E): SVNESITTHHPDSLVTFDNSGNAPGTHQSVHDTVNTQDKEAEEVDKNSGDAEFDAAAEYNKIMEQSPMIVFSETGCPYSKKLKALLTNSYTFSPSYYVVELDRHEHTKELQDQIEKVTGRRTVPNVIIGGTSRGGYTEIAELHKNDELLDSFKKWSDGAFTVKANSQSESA

ScGrx7 [2] = molecular target: T2, ScGrx7 (Saccharomyces cerevisiae, UniProt P38068, K105A); test: as above; type: biochemical; conditions: varied GSSCys 25-200 uM at fixed GSH 0.05-1.0 mM; 0.1 M Tris/HCl, 1 mM EDTA, pH 8.0, 25 C; ping-pong
T2 construct: gene GRX7; N-terminal MRGS(H)6 tag kept, E. coli XL1-Blue, pQE30/SCGRX7 double stop-codon construct
T2 sequence (P38068 33-203 K105A): T1 sequence (P38068 33-203 K105E) with E73A

ScGrx7 [3] = molecular target: T3, ScGrx7 (Saccharomyces cerevisiae, UniProt P38068, E170A); test: as above; type: biochemical; conditions: varied GSSCys 25-200 uM at fixed GSH 0.05-1.0 mM; 0.1 M Tris/HCl, 1 mM EDTA, pH 8.0, 25 C; ping-pong
T3 construct: gene GRX7; N-terminal MRGS(H)6 tag kept, E. coli XL1-Blue, pQE30/SCGRX7 double stop-codon construct
T3 sequence (P38068 33-203 E170A): T1 sequence (P38068 33-203 K105E) with E73K, E138A

ScGrx7 [4] = molecular target: T4, ScGrx7 (Saccharomyces cerevisiae, UniProt P38068); test: as above; type: biochemical; conditions: varied GSSCys 25-200 uM at fixed GSH 0.05-1.0 mM; 0.1 M Tris/HCl, 1 mM EDTA, pH 8.0, 25 C; ping-pong
T4 construct: gene GRX7; N-terminal MRGS(H)6 tag kept, E. coli XL1-Blue, pQE30/SCGRX7 double stop-codon construct
T4 sequence (P38068 33-203): T1 sequence (P38068 33-203 K105E) with E73K

ScGrx7 [5] = molecular target: T5, ScGrx7 (Saccharomyces cerevisiae, UniProt P38068, E170K); test: as above; type: biochemical; conditions: varied GSSCys 25-200 uM at fixed GSH 0.05-1.0 mM; 0.1 M Tris/HCl, 1 mM EDTA, pH 8.0, 25 C; ping-pong
T5 construct: gene GRX7; N-terminal MRGS(H)6 tag kept, E. coli XL1-Blue, pQE30/SCGRX7 double stop-codon construct
T5 sequence (P38068 33-203 E170K): T1 sequence (P38068 33-203 K105E) with E73K, E138K

ScGrx7 [6] = molecular target: T4, ScGrx7; test: coupled NADPH/glutathione reductase assay, […] nm, HEDS assay; type: biochemical; conditions: varied HEDS 90-920 uM at fixed GSH 0.3-1.5 mM; 0.1 M Tris/HCl, 1 mM EDTA, pH 8.0, 25 C; sequential pattern
ScGrx7 [7] = molecular target: T4, ScGrx7; test: inhibition of HEDS or GSSEtOH assay; type: biochemical; conditions: up to 10 mM inhibitor; weak competitive inhibitor; HEDS or GSSEtOH as disulfide substrate with GSH
[8] = substrate: N[C@@H](CCC(=O)N[C@@H](CS)C(=O)NCC(=O)O)C(=O)O; test: purified protein, by the assay type; set-up: HEDS assay, GR-coupled NADPH consumption at 340 nm, steady-state kinetics; conditions: pH 8.0; 25.0 °C
Description: (§1) Both assays were performed with 0.1 mM NADPH and 1 U ml^−1 GR. Final concentrations of K105X and E170X mutants were 10 nM to 1.5 μM and 5–20 nM, respectively. Final concentrations of DM, D90A and K26A were 5–10 nM, 5–12.5 nM and 50–100 nM, respectively. […] NADPH, GSH and GR were mixed in assay buffer before Grx was added and a baseline was recorded for 30 s. […] For the HEDS assays, either GSH was varied between 100 μM and 1.5 mM for ScGrx (or 250 μM and 3.0 mM for PfGrx) at fixed concentrations of HEDS (0.18, 0.37, 0.55 and 0.74 mM) or HEDS was varied between 90 and 920 μM at fixed concentrations of GSH (0.3, 0.5, 1 and 1.5 mM for ScGrx7 or 0.25, 0.5, 1 and 2 mM for PfGrx). NADPH, GSH and HEDS were preincubated in assay buffer for 2 min before GR was added and a baseline was recorded for 30 s. All HEDS assays were started by the addition of enzyme. Kinetic data were analysed in Excel and SigmaPlot 12 by non-linear and linear regression according to Michaelis–Menten, Lineweaver–Burk, Eadie–Hofstee and Hanes theory[11][12][18]. […] All data points are the mean ± S.D. from at least three independent replicates and were averaged from at least three independent protein purification experiments and subsequently plotted and fitted in Sigmaplot 12.5 according to Michaelis-Menten, Lineweaver-Burk, Eadie-Hofstee and Hanes theory (the latter two plots are not shown).

[9] = substrate: OCCSSCCO; test: purified protein, by the assay type; set-up: HEDS assay, GR-coupled NADPH consumption at 340 nm, steady-state kinetics; conditions: pH 8.0; 25.0 °C
Description: as §1

[10] = substrate: N[C@@H](CCC(=O)N[C@@H](CS)C(=O)NCC(=O)O)C(=O)O; test: purified protein, by the assay type; set-up: HEDS oxidoreductase assay, glutathione reductase coupled, NADPH consumption at 340 nm, pH 8.0, 25 °C; conditions: pH 8.0; 25.0 °C
Description: (§2) Both assays were performed with 0.1 mM NADPH and 1 U ml^−1 GR. Final concentrations of K105X and E170X mutants were 10 nM to 1.5 μM and 5–20 nM, respectively. Final concentrations of DM, D90A and K26A were 5–10 nM, 5–12.5 nM and 50–100 nM, respectively. […] NADPH, GSH and GR were mixed in assay buffer before Grx was added and a baseline was recorded for 30 s. […] For the HEDS assays, either GSH was varied between 100 μM and 1.5 mM for ScGrx (or 250 μM and 3.0 mM for PfGrx) at fixed concentrations of HEDS (0.18, 0.37, 0.55 and 0.74 mM) or HEDS was varied between 90 and 920 μM at fixed concentrations of GSH (0.3, 0.5, 1 and 1.5 mM for ScGrx7 or 0.25, 0.5, 1 and 2 mM for PfGrx). NADPH, GSH and HEDS were preincubated in assay buffer for 2 min before GR was added and a baseline was recorded for 30 s. All HEDS assays were started by the addition of enzyme. Kinetic data were analysed in Excel and SigmaPlot 12 by non-linear and linear regression according to Michaelis–Menten, Lineweaver–Burk, Eadie–Hofstee and Hanes theory[11][12][18]. […] All data points are the mean ± S.D. from at least three independent replicates and were averaged from at least three independent protein purification experiments and subsequently plotted and fitted in Sigmaplot 12.5 according to Michaelis-Menten, Lineweaver-Burk, Eadie-Hofstee and Hanes theory (the latter two plots are not shown). […] All data points are the mean ± S.D. from at least three independent replicates and were averaged from at least three independent protein purification experiments and subsequently plotted and fitted in Sigmaplot 12.5 according to Michaelis-Menten, Lineweaver-Burk, Eadie-Hofstee and Hanes theory (the latter two plots are not shown).

[11] = substrate: OCCSSCCO; test: purified protein, by the assay type; set-up: HEDS oxidoreductase assay, glutathione reductase coupled, NADPH consumption at 340 nm, pH 8.0, 25 °C; conditions: pH 8.0; 25.0 °C
Description: as §2

For `N[C@@H](CCC(=O)N[C@@H](CSSC[C@H](N)C(=O)O)C(=O)NCC(=O)O)C(=O)O` [GSSCys], the Km app (ScGrx7 [1]) was “all K105X mutants had increased Km ^app(GSSCys) values”, the Km app (ScGrx7 [2]) was “all K105X mutants had increased Km ^app(GSSCys) values” and the Km app (ScGrx7 [3]) was “Km ^app values for GSSCys and GSH were reciprocally doubled and halved, respectively”. The Km app (ScGrx7 [4]) was “Selected kcat ^app and Km ^app values of ScGrx7 wild-type enzyme and K105X mutants” and the Km app (ScGrx7 [5]) was “Km ^app values for GSSCys and GSH were reciprocally doubled and halved, respectively”.

For `OCCSSCCO` [HEDS], the Km app (ScGrx7 [6]) was “Selected kcat ^app and Km ^app values of ScGrx7 wild-type enzyme and K105X mutants”.

With `CC[C@H](NC(=O)CC[C@H](N)C(=O)O)C(=O)NCC(=O)O` [ophthalmic acid, L-γ-glutamyl-L-α-aminobutyrylglycine] (γGlu-[Abu]-Gly-OH) the “% reduction of reaction velocity at up to 10 mM” value (ScGrx7 [7]) was 10–20%.

B1: ScGrx7 (Saccharomyces cerevisiae S288C) (protein)
chain: T1 sequence (P38068 33-203 K105E) with E73K
notes: N-terminal MRGS(H)6 tag kept, E. coli XL1-Blue, pQE30/SCGRX7 double stop-codon construct
B1 was tested, and the Km [8] was 1210 ± 200 µM and 1230 ± 150 µM and 1120 ± 110 µM, the Km [9] was 2050 ± 200 µM and 1820 ± 300 µM and 3720 ± 1100 µM and the Km [10] was 1200 ± 100 µM and 2300 ± 500 µM. The Km [11] was 2300 ± 700 µM and 1500 ± 200 µM.
